Values after ≈ are worked out from the molar mass of the structure shown. Where a name gives a salt, the structure may show the parent alone.
Legend:
[1] = system: Saccharomyces cerevisiae; assay: Toxicity in Saccharomyces cerevisiae harboring yap1 deletion mutant after 24 to 48 hrs by broth microdilution method; assay type: organism-based; conditions: in vivo
[2] = system: Saccharomyces cerevisiae; assay: Toxicity in Saccharomyces cerevisiae BY4741 after 24 to 48 hrs by broth microdilution method; assay type: organism-based; conditions: in vivo
[3] = system: Staphylococcus aureus; assay: Antibacterial activity against methicillin-sensitive Staphylococcus aureus ATCC 25923 after 24 hrs by broth microdilution method; assay type: functional; conditions: ATCC 25923, 24 h
[4] = system: Saccharomyces cerevisiae; assay: Toxicity in Saccharomyces cerevisiae harboring mad2 deletion mutant after 24 to 48 hrs by broth microdilution method; assay type: organism-based; conditions: in vivo
[5] = system: Saccharomyces cerevisiae; assay: Toxicity in Saccharomyces cerevisiae harboring rad52/rad9 deletion mutant after 24 to 48 hrs by broth microdilution method; assay type: organism-based; conditions: in vivo
[6] = system: Staphylococcus aureus; assay: Antibacterial activity against methicillin-resistant vancomycin-intermediate resistant Staphylococcus aureus NRS402 after 24 hrs by broth microdilution method; assay type: functional; conditions: NRS402, 24 h
[7] = system: Enterococcus faecalis; assay: microbe, parasite or virus in culture; assay type: functional; conditions: ATCC 29212, 24 h
Description: Antibacterial activity against Enterococcus faecalis ATCC 29212 after 24 hrs by broth microdilution method

[8] = system: Saccharomyces cerevisiae; assay: Toxicity in Saccharomyces cerevisiae harboring rad52/rad9 deletion mutant assessed as cell growth at 128 uM after 24 to 48 hrs by broth microdilution method relative to control; assay type: organism-based; conditions: in vivo
[9] = system: Saccharomyces cerevisiae; assay: Toxicity in Saccharomyces cerevisiae BY4741 assessed as cell growth at 128 uM after 24 to 48 hrs by broth microdilution method relative to control; assay type: organism-based
[10] = system: Saccharomyces cerevisiae; assay: Toxicity in Saccharomyces cerevisiae harboring yap1 deletion mutant assessed as cell growth at 128 uM after 24 to 48 hrs by broth microdilution method relative to control; assay type: organism-based; conditions: in vivo
[11] = system: Saccharomyces cerevisiae; assay: Toxicity in Saccharomyces cerevisiae harboring mad2 deletion mutant assessed as cell growth at 128 uM after 24 to 48 hrs by broth microdilution method relative to control; assay type: organism-based; conditions: in vivo

| Structure (SMILES) | MIC [1] | MIC [2] | MIC [3] | MIC [4] | MIC [5] | MIC [6] | MIC [7] | Activity [8] | Activity [9] | Activity [10] | Activity [11] |
| --- | --- | --- | --- | --- | --- | --- | --- | --- | --- | --- | --- |
| Oc1cc(O)c2c(c1)oc1cc(O)cc(O)c12 | > 128 µM | > 128 µM | > 128 µM | > 128 µM | > 128 µM | > 128 µM | > 128 µM |  |  |  |  |
| CCC(C)C(=O)c1c(O)cc(O)cc1O (stereo not given) | > 128 µM | > 128 µM | 64 µM (≈ 13.5 µg/mL) | > 128 µM | > 128 µM | 32 µM (≈ 6.73 µg/mL) | 64 µM (≈ 13.5 µg/mL) |  |  |  |  |
| CCC(C)C(=O)c1c(O)cc(O)c2c1oc1c(C(=O)C(C)CC)c(O)cc(O)c12 (stereo not given) | > 128 µM | > 128 µM | 8 µM (≈ 3.2 µg/mL) | > 128 µM | > 128 µM | 8 µM (≈ 3.2 µg/mL) | 32 µM (≈ 12.8 µg/mL) |  |  |  |  |
| CCC(C)C(=O)c1c(O)cc(O)c(CCC(C)C)c1O (stereo not given) | > 128 µM | > 128 µM | 32 µM (≈ 8.97 µg/mL) | > 128 µM | > 128 µM | 32 µM (≈ 8.97 µg/mL) | 32 µM (≈ 8.97 µg/mL) | 20 to 40% | 20 to 40% | 20 to 40% | 20 to 40% |
| CCC(C)C(=O)c1c(O)c(CCC(C)C)c(O)c(-c2c(O)c(CCC(C)C)c(O)c(C(=O)C(C)CC)c2O)c1O (stereo not given) | > 128 µM | > 128 µM | 8 µM (≈ 4.47 µg/mL) | > 128 µM | > 128 µM | 1 µM (≈ 0.559 µg/mL) | 4 µM (≈ 2.23 µg/mL) |  |  |  |  |
| CCCc1c(O)c(C(=O)C(C)CC)c(O)c(-c2c(O)c(CCC)c(O)c(C(=O)C(C)CC)c2O)c1O (stereo not given) | > 128 µM | > 128 µM | 4 µM (≈ 2.01 µg/mL) | > 128 µM | > 128 µM | 0.5 µM (≈ 0.251 µg/mL) | 2 µM (≈ 1.01 µg/mL) |  |  |  |  |
| CCCc1c(O)cc(O)c(C(=O)C(C)CC)c1O (stereo not given) | > 128 µM | > 128 µM | 64 µM (≈ 16.1 µg/mL) | > 128 µM | > 128 µM | 64 µM (≈ 16.1 µg/mL) | 64 µM (≈ 16.1 µg/mL) | 20 to 40% | 20 to 40% | 20 to 40% | 20 to 40% |
| CCCc1c(O)c(C(=O)C(C)CC)c2oc3c(C(=O)C(C)CC)c(O)c(CCC)c(O)c3c2c1O (stereo not given) | > 128 µM | > 128 µM | 0.5 µM (≈ 0.242 µg/mL) | > 128 µM | > 128 µM | 0.5 µM (≈ 0.242 µg/mL) | 0.5 µM (≈ 0.242 µg/mL) |  |  |  |  |
| Cc1onc(-c2ccccc2)c1C(=O)N[C@@H]1C(=O)N2[C@@H]1SC(C)(C)[C@@H]2C(=O)O |  |  | ≤ 0.3 µM |  |  | 150 µM (≈ 60.2 µg/mL) | 9.5 µM (≈ 3.81 µg/mL) |  |  |  |  |
| CN[C@H](CC(C)C)C(=O)N[C@H]1C(=O)N[C@@H](CC(N)=O)C(=O)N[C@H]2C(=O)N[C@H]3C(=O)N[C@H](C(=O)N[C@H](C(=O)O)c4cc(O)cc(O)c4-c4cc3ccc4O)[C@H](O)c3ccc(c(Cl)c3)Oc3cc2cc(c3O[C@@H]2O[C@H](CO)[C@@H](O)[C@H](O)[C@H]2O[C@H]2C[C@](C)(N)[C@H](O)[C@H](C)O2)Oc2ccc(cc2Cl)[C@H]1O [VANCOMYCIN HYDROCHLORIDE] |  |  | 0.7 µM |  |  | 5.5 µM | 1.4 µM |  |  |  |  |

From ChEMBL document CHEMBL4130498, “Synthesis and antibacterial activity of new symmetric polyoxygenated dibenzofurans” (Eur J Med Chem, 2017)
